Experimental data: patent US20180221295A1, “PHARMACEUTICAL COMPOSITION COMPRISING ELECTROHYDRODYNAMICALLY OBTAINED FIBRES, THE COMPOSITION HAVING IMPROVED RESIDENCE TIME ON THE APPLICATION SITE” (DERMTREAT APS, priority 2015, published 2018)

How the values were obtained:
[1] = In vitro drug release testing of fibres in Green's cell culture medium (HPLC); format: physicochemical; settings: 1.2x1.2 cm samples in 5 mL Green's cell culture medium, 37° C., 30, 60 and 120 minutes
Method: Compositions: Same as in example 4.
Composition of Green's cell culture medium - Dulbecco's Modified Eagle's Medium: Ham's F12 medium in a 3:1 (v/v) ratio supplemented with 10% (v/v) FCS • 0.1 μM cholera toxin • 10 ng/ml of epidermal growth factor (EGF) • 0.4 μg/ml hydrocortisone • 0.18 mM adenine • 5 μg/ml insulin • 5 μg/ml transferrin • 2 mM glutamine • 0.2 μM triiodothyronine • 0.625 μg/ml amphotericin B • 100 IU/ml penicillin • 100 μg/ml streptomycin
Method of Analysis: • Samples of dimensions 1.2×1.2 cm were cut from each fibre composition and were placed in vials containing 5 mL of Green's cell culture medium. • All vials were incubated at 37° C. for 30, 60 and 120 minutes. • At those time points, 1.5 mL of cell culture media were removed from each vial • The concentration of clobetasol propionate released from the fibres was measured using high-performance liquid chromatography (HPLC).

[2] = in vivo; cited from earlier work
[3] = in vivo; cited from earlier work; remark: listed apart in the source

CCC(=O)O[C@]1(C(=O)CCl)[C@@H](C)C[C@H]2[C@@H]3CCC4=CC(=O)C=C[C@]4(C)[C@@]3(F)[C@@H](O)C[C@@]21C [clobetasol propionate]
Release of clobetasol propionate from electrospun fibres [1]: released after immersion in cell culture media

C[C@]12CCC(=O)C=C1CC[C@@H]1[C@@H]2[C@@H](O)C[C@@]2(C)[C@H]1CC[C@]2(O)C(=O)CO [Hydrocortisone]
Absorption from the gut [2]: no significant absorption from the gut

C/C=C(/C)C(=O)O[C@H]1C(C)=C[C@]23C(=O)[C@@H](C=C(CO)[C@@H](O)[C@]12O)[C@H]1[C@@H](C[C@H]3C)C1(C)C [Ingenol mebutate]
Absorption through the skin [3]: practically not absorbed through the skin
